# Literature values, collected in US5665379A, “Lipid particle forming matrix, preparation and use thereof” (priority 1990, dated 1997).
compound,measurement,value
CCCCCCCCCCCCCCCC(=O)OC(CC(=O)[O-])C[N+](C)(C)C (stereo not shown) [palmitoylcarnitine],Absorption enhancement in the gut (in words),acts as an absorption enhancer
